# Results from US10597388B2, “Pyridazinone herbicides” (FMC CORPORATION, priority 2014, dated 2020).
# Columns and labels:
# Assay in all cases: Test C greenhouse herbicide test, pre- and postemergence
# Type in all cases: in vivo
# [1] = tested on: barnyardgrass (Echinochloa crus-galli)
# How it was run: (§1)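 Seeds sown in loam–sand blend treated preemergence; plants in peat-based medium sprayed postemergence at 2–18 cm (1- to 4-leaf stage); chemicals in non-phytotoxic solvent with surfactant. Greenhouse 13–15 d, then visual rating versus controls on 0–100 scale (0 no effect, 100 complete control).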
# [2] = tested on: blackgrass (Alopecurus myosuroides)
# How it was run: as §1
# [3] = tested on: johnsongrass (Sorghum halepense)
# How it was run: as §1
# [4] = tested on: morningglory (Ipomoea coccinea)
# How it was run: as §1
# [5] = tested on: lambsquarters (Chenopodium album)
# How it was run: as §1
# corn (Zea mays) = tested on: corn (Zea mays)
# How it was run: as §1
# [6] = tested on: ragweed (common ragweed, Ambrosia elatior)
# How it was run: as §1
# [7] = tested on: nutsedge, yellow (yellow nutsedge, Cyperus esculentus)
# How it was run: as §1
# [8] = tested on: wheat (winter wheat, Triticum aestivum)
# How it was run: as §1
# [9] = tested on: velvetleaf (Abutilon theophrasti)
# How it was run: as §1
# [10] = tested on: waterhemp (common waterhemp, Amaranthus rudis)
# How it was run: as §1
# [11] = tested on: pigweed (Amaranthus retroflexus)
# How it was run: as §1
# [12] = tested on: galium (catchweed bedstraw, Galium aparine)
# How it was run: as §1
# soybean (Glycine max) = tested on: soybean (Glycine max)
# How it was run: as §1
# [13] = tested on: foxtail, giant (giant foxtail, Setaria faberii)
# How it was run: as §1
# [14] = tested on: ryegrass, Italian (Italian ryegrass, Lolium multiflorum)
# How it was run: as §1
# [15] = Postemergence, 31 g ai/ha, scale 0 to 100 (0 no effect, 100 complete control)
# [16] = Postemergence, 62 g ai/ha, 0 to 100 scale (0 no effect, 100 complete control)
# [17] = Postemergence, 250 g ai/ha, scale 0 to 100, 0 is no effect, 100 is complete control
# [18] = postemergence, 125 g ai/ha, scale 0 to 100, 0 no effect, 100 complete control
structure (smiles),measurement,setting,value
Cc1ccc2ccccc2c1-c1c(OC(=O)N2CCOCC2)c(Br)nn(C)c1=O [Compound 176],"Plant response rating, Barnyardgrass",[1]; [15],5
same,Barnyardgrass plant response rating,[1]; [16],5
same,"Plant response rating, Barnyardgrass",[1]; [17],20
same,Barnyardgrass plant response rating,[1]; [18],10
same,"Plant response rating, Blackgrass",[2]; [15],0
same,Blackgrass plant response rating,[2]; [16],0
same,"Plant response rating, Blackgrass",[2]; [17],0
same,Blackgrass plant response rating,[2]; [18],0
same,"Plant response rating, Johnsongrass",[3]; [15],5
same,Johnsongrass plant response rating,[3]; [16],5
same,"Plant response rating, Johnsongrass",[3]; [17],10
same,Johnsongrass plant response rating,[3]; [18],5
same,"Plant response rating, Morningglory",[4]; [15],85
same,Morningglory plant response rating,[4]; [16],85
same,"Plant response rating, Morningglory",[4]; [17],100
same,Morningglory plant response rating,[4]; [18],98
same,"Plant response rating, Lambsquarters",[5]; [15],60
same,Lambsquarters plant response rating,[5]; [16],80
same,"Plant response rating, Lambsquarters",[5]; [17],90
same,Lambsquarters plant response rating,[5]; [18],80
same,"Plant response rating, Corn",corn (Zea mays); [15],0
same,Corn plant response rating,corn (Zea mays); [16],10
same,"Plant response rating, Corn",corn (Zea mays); [17],5
same,Corn plant response rating,corn (Zea mays); [18],0
same,"Plant response rating, Ragweed",[6]; [15],0
same,Ragweed plant response rating,[6]; [16],0
same,"Plant response rating, Ragweed",[6]; [17],0
same,Ragweed plant response rating,[6]; [18],0
same,"Plant response rating, Nutsedge, Yellow",[7]; [15],5
same,"Nutsedge, Yellow plant response rating",[7]; [16],5
same,"Plant response rating, Nutsedge, Yellow",[7]; [17],5
same,"Nutsedge, Yellow plant response rating",[7]; [18],5
same,"Plant response rating, Wheat",[8]; [15],0
same,Wheat plant response rating,[8]; [16],5
same,"Plant response rating, Wheat",[8]; [17],40
same,Wheat plant response rating,[8]; [18],10
same,"Plant response rating, Velvetleaf",[9]; [15],0
same,Velvetleaf plant response rating,[9]; [16],25
same,"Plant response rating, Velvetleaf",[9]; [17],80
same,Velvetleaf plant response rating,[9]; [18],75
same,"Plant response rating, Waterhemp",[10]; [15],20
same,Waterhemp plant response rating,[10]; [16],40
same,"Plant response rating, Waterhemp",[10]; [17],55
same,Waterhemp plant response rating,[10]; [18],60
same,"Plant response rating, Pigweed",[11]; [15],20
same,Pigweed plant response rating,[11]; [16],30
same,"Plant response rating, Pigweed",[11]; [17],75
same,Pigweed plant response rating,[11]; [18],50
same,"Plant response rating, Galium",[12]; [15],0
same,Galium plant response rating,[12]; [16],5
same,"Plant response rating, Galium",[12]; [17],60
same,Galium plant response rating,[12]; [18],60
same,"Plant response rating, Soybean",soybean (Glycine max); [15],5
same,Soybean plant response rating,soybean (Glycine max); [16],10
same,"Plant response rating, Soybean",soybean (Glycine max); [17],10
same,Soybean plant response rating,soybean (Glycine max); [18],15
same,"Plant response rating, Foxtail, Giant",[13]; [15],5
same,"Foxtail, Giant plant response rating",[13]; [16],15
same,"Plant response rating, Foxtail, Giant",[13]; [17],40
same,"Foxtail, Giant plant response rating",[13]; [18],35
same,"Plant response rating, Ryegrass, Italian",[14]; [15],0
same,"Ryegrass, Italian plant response rating",[14]; [16],0
same,"Plant response rating, Ryegrass, Italian",[14]; [17],10
same,"Ryegrass, Italian plant response rating",[14]; [18],0
